PubChem BioAssay (NCI)
Where “and” joins values, the source holds several entries; their conditions need not be identical. Identical values can stand only once.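 Each compound was tested at five concentrations against cells in 96-well plates for 48 hours. At the GI50, growth is halved. TGI is the concentration that stops growth completely.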

Key:
Assay in all cases: NCI tumour cell line growth inhibition, 48 h
786-0 renal = test system: 786-0 renal
A498 renal = test system: A498 renal
A549 NSCLC = test system: A549 NSCLC
ACHN renal = test system: ACHN renal
CAKI-1 renal = test system: CAKI-1 renal
CCRF-CEM leukemia = test system: CCRF-CEM leukemia
COLO 205 colon = test system: COLO 205 colon
DU-145 prostate = test system: DU-145 prostate
EKVX NSCLC = test system: EKVX NSCLC
HCC-2998 colon = test system: HCC-2998 colon
HCT-116 colon = test system: HCT-116 colon
HCT-15 colon = test system: HCT-15 colon
HL-60(TB) leukemia = test system: HL-60(TB) leukemia
HOP-62 NSCLC = test system: HOP-62 NSCLC
HOP-92 NSCLC = test system: HOP-92 NSCLC
HS 578T breast = test system: HS 578T breast
HT29 colon = test system: HT29 colon
IGROV1 ovarian = test system: IGROV1 ovarian
K-562 leukemia = test system: K-562 leukemia
KM12 colon = test system: KM12 colon
LOX IMVI melanoma = test system: LOX IMVI melanoma
M14 melanoma = test system: M14 melanoma
MCF7 breast = test system: MCF7 breast
MDA-MB-231 breast = test system: MDA-MB-231 breast
MDA-MB-435 = test system: MDA-MB-435
MDA-N = test system: MDA-N
MOLT-4 leukemia = test system: MOLT-4 leukemia
NCI-H226 lung = test system: NCI-H226 lung
NCI-H23 lung = test system: NCI-H23 lung
NCI-H460 lung = test system: NCI-H460 lung
NCI-H522 lung = test system: NCI-H522 lung
NCI/ADR-RES ovarian = test system: NCI/ADR-RES ovarian
OVCAR-3 ovarian = test system: OVCAR-3 ovarian
OVCAR-4 ovarian = test system: OVCAR-4 ovarian
OVCAR-5 ovarian = test system: OVCAR-5 ovarian
OVCAR-8 ovarian = test system: OVCAR-8 ovarian
PC-3 prostate = test system: PC-3 prostate
RPMI-8226 leukemia = test system: RPMI-8226 leukemia
RXF 393 renal = test system: RXF 393 renal
SF-268 CNS = test system: SF-268 CNS
SF-295 CNS = test system: SF-295 CNS
SF-539 CNS = test system: SF-539 CNS
SK-MEL-2 melanoma = test system: SK-MEL-2 melanoma
SK-MEL-28 melanoma = test system: SK-MEL-28 melanoma
SK-MEL-5 melanoma = test system: SK-MEL-5 melanoma
SK-OV-3 ovarian = test system: SK-OV-3 ovarian
SN12C renal = test system: SN12C renal
SNB-19 CNS = test system: SNB-19 CNS
SNB-75 CNS = test system: SNB-75 CNS
SR leukemia = test system: SR leukemia
SW-620 colon = test system: SW-620 colon
T-47D breast = test system: T-47D breast
TK-10 renal = test system: TK-10 renal
UACC-257 melanoma = test system: UACC-257 melanoma
UACC-62 melanoma = test system: UACC-62 melanoma
UO-31 renal = test system: UO-31 renal
U251 CNS = test system: U251 CNS
MALME-3M melanoma = test system: MALME-3M melanoma

Compound: CCOC(=O)Nc1ccc2c(c1)c(CCCCCCc1nc3ccccc3c3ccc(NC(=O)OCC)cc13)nc1ccccc12
- TGI (786-0 renal): 42.4 µM
- TGI (A498 renal): 67.3 µM
- TGI (A549 NSCLC): > 100 µM
- TGI (ACHN renal): > 100 µM
- TGI (CAKI-1 renal): > 100 µM
- TGI (CCRF-CEM leukemia): > 100 µM
- TGI (COLO 205 colon): > 100 µM
- TGI (DU-145 prostate): > 100 µM
- TGI (EKVX NSCLC): > 100 µM
- TGI (HCC-2998 colon): > 100 µM
- TGI (HCT-116 colon): > 100 µM
- TGI (HCT-15 colon): > 100 µM
- TGI (HL-60(TB) leukemia): > 100 µM
- TGI (HOP-62 NSCLC): 64.2 µM
- TGI (HOP-92 NSCLC): 63 µM
- TGI (HS 578T breast): > 100 µM
- TGI (HT29 colon): > 100 µM
- TGI (IGROV1 ovarian): > 100 µM
- TGI (K-562 leukemia): > 100 µM
- TGI (KM12 colon): > 100 µM
- TGI (LOX IMVI melanoma): 42.5 µM
- TGI (M14 melanoma): 88.8 µM
- TGI (MCF7 breast): > 100 µM
- TGI (MDA-MB-231 breast): 67.8 µM
- TGI (MDA-MB-435): > 100 µM
- TGI (MDA-N): > 100 µM
- TGI (MOLT-4 leukemia): > 100 µM
- TGI (NCI-H226 lung): 81 µM
- TGI (NCI-H23 lung): > 100 µM
- TGI (NCI-H460 lung): > 100 µM
- TGI (NCI-H522 lung): 60.5 µM
- TGI (NCI/ADR-RES ovarian): > 100 µM
- TGI (OVCAR-3 ovarian): 58.7 µM
- TGI (OVCAR-4 ovarian): 74.2 µM
- TGI (OVCAR-5 ovarian): > 100 µM
- TGI (OVCAR-8 ovarian): 61.3 µM
- TGI (PC-3 prostate): > 100 µM
- TGI (RPMI-8226 leukemia): > 100 µM
- TGI (RXF 393 renal): > 100 µM
- TGI (SF-268 CNS): 74.9 µM
- TGI (SF-295 CNS): > 100 µM
- TGI (SF-539 CNS): 25 µM
- TGI (SK-MEL-2 melanoma): 71.2 µM
- TGI (SK-MEL-28 melanoma): > 100 µM
- TGI (SK-MEL-5 melanoma): > 100 µM
- TGI (SK-OV-3 ovarian): 85.1 µM
- TGI (SN12C renal): > 100 µM
- TGI (SNB-19 CNS): > 100 µM
- TGI (SNB-75 CNS): 45.3 µM
- TGI (SR leukemia): > 100 µM
- TGI (SW-620 colon): > 100 µM
- TGI (T-47D breast): > 100 µM
- TGI (TK-10 renal): 84.8 µM
- TGI (UACC-257 melanoma): > 100 µM
- TGI (UACC-62 melanoma): > 100 µM
- TGI (UO-31 renal): > 100 µM

Compound: O=C1CC(c2cccc(F)c2)Nc2cc3c(cc21)OCO3 (stereo unspecified)
- GI50 (786-0 renal): < 0.01 µM
- TGI (786-0 renal): > 100 µM
- TGI (A498 renal): > 100 µM
- GI50 (A549 NSCLC): < 0.01 µM
- TGI (A549 NSCLC): > 100 µM
- GI50 (ACHN renal): < 0.01 µM
- TGI (ACHN renal): 22.6 µM
- GI50 (CAKI-1 renal): < 0.01 µM
- TGI (CAKI-1 renal): > 100 µM
- GI50 (CCRF-CEM leukemia): < 0.01 µM
- TGI (CCRF-CEM leukemia): > 100 µM
- GI50 (COLO 205 colon): < 0.01 µM
- GI50 (DU-145 prostate): < 0.01 µM
- TGI (DU-145 prostate): > 100 µM
- TGI (EKVX NSCLC): > 100 µM
- GI50 (HCC-2998 colon): < 0.01 µM
- TGI (HCC-2998 colon): < 0.01 µM
- GI50 (HCT-116 colon): < 0.01 µM
- TGI (HCT-116 colon): > 100 µM
- GI50 (HCT-15 colon): < 0.01 µM
- TGI (HCT-15 colon): > 100 µM
- GI50 (HOP-62 NSCLC): 2.65 µM
- TGI (HOP-62 NSCLC): > 100 µM
- GI50 (HOP-92 NSCLC): 30.8 µM
- TGI (HOP-92 NSCLC): > 100 µM
- TGI (HS 578T breast): > 100 µM
- TGI (HT29 colon): 0.0667 µM
- TGI (K-562 leukemia): > 100 µM
- GI50 (LOX IMVI melanoma): < 0.01 µM
- TGI (LOX IMVI melanoma): > 100 µM
- GI50 (M14 melanoma): < 0.01 µM
- TGI (M14 melanoma): > 100 µM
- GI50 (MCF7 breast): < 0.01 µM
- TGI (MCF7 breast): > 100 µM
- GI50 (MDA-MB-231 breast): 0.04 µM
- TGI (MDA-MB-231 breast): > 100 µM
- GI50 (MDA-MB-435): < 0.01 µM
- TGI (MDA-MB-435): < 0.01 µM
- GI50 (MDA-N): < 0.01 µM
- TGI (MDA-N): 0.0377 µM and < 0.01 µM
- TGI (MOLT-4 leukemia): < 0.01 µM
- GI50 (NCI-H226 lung): < 0.01 µM
- TGI (NCI-H522 lung): 0.0602 µM
- GI50 (OVCAR-3 ovarian): < 0.01 µM
- TGI (OVCAR-3 ovarian): > 100 µM
- GI50 (OVCAR-4 ovarian): > 100 µM
- TGI (OVCAR-4 ovarian): > 100 µM
- GI50 (OVCAR-5 ovarian): 13.4 µM
- TGI (OVCAR-5 ovarian): > 100 µM
- TGI (OVCAR-8 ovarian): 1.52 µM
- GI50 (PC-3 prostate): < 0.01 µM
- TGI (PC-3 prostate): > 100 µM
- TGI (RPMI-8226 leukemia): 0.162 µM
- TGI (RXF 393 renal): 0.0943 µM
- GI50 (SF-268 CNS): 1.53 µM
- TGI (SF-268 CNS): > 100 µM
- GI50 (SF-295 CNS): < 0.01 µM
- TGI (SF-295 CNS): > 100 µM
- GI50 (SF-539 CNS): < 0.01 µM
- GI50 (SK-MEL-5 melanoma): < 0.01 µM
- TGI (SK-MEL-5 melanoma): < 0.01 µM
- GI50 (SK-OV-3 ovarian): 0.0111 µM
- TGI (SK-OV-3 ovarian): > 100 µM
- GI50 (SN12C renal): 0.207 µM
- TGI (SN12C renal): > 100 µM
- TGI (SNB-19 CNS): 3.12 µM
- GI50 (SW-620 colon): < 0.01 µM
- TGI (SW-620 colon): > 100 µM
- TGI (T-47D breast): > 100 µM
- GI50 (TK-10 renal): > 100 µM
- TGI (TK-10 renal): > 100 µM
- GI50 (U251 CNS): < 0.01 µM
- TGI (U251 CNS): > 100 µM
- GI50 (UACC-257 melanoma): < 0.01 µM
- TGI (UACC-257 melanoma): > 100 µM
- GI50 (UACC-62 melanoma): < 0.01 µM
- TGI (UACC-62 melanoma): < 0.01 µM
- GI50 (UO-31 renal): < 0.01 µM
- TGI (UO-31 renal): > 100 µM

Compound: CCCCCCCCCCCCCCCCOP(=O)(O)OCC(N)C(=O)O (stereo unspecified)
- TGI (786-0 renal): 41.6 µM
- TGI (A498 renal): 34.8 µM
- TGI (A549 NSCLC): 53.1 µM
- TGI (ACHN renal): 32.7 µM
- TGI (CAKI-1 renal): 28 µM
- TGI (CCRF-CEM leukemia): 65 µM
- TGI (COLO 205 colon): 38.1 µM
- TGI (DU-145 prostate): > 100 µM
- TGI (EKVX NSCLC): > 100 µM
- TGI (HCC-2998 colon): > 100 µM
- TGI (HCT-116 colon): 25.4 µM
- TGI (HCT-15 colon): 61.3 µM
- TGI (HOP-62 NSCLC): 45.9 µM
- TGI (HOP-92 NSCLC): 38.4 µM
- TGI (HS 578T breast): 40.8 µM
- TGI (HT29 colon): > 100 µM
- TGI (IGROV1 ovarian): 34.7 µM
- TGI (K-562 leukemia): 56.9 µM
- TGI (KM12 colon): 30.2 µM
- TGI (LOX IMVI melanoma): 28.2 µM
- TGI (M14 melanoma): 46.5 µM
- TGI (MALME-3M melanoma): > 100 µM
- TGI (MDA-MB-231 breast): 47.4 µM
- TGI (MDA-MB-435): 39.8 µM
- TGI (MDA-N): 43.1 µM
- TGI (MOLT-4 leukemia): 29 µM
- TGI (NCI-H226 lung): 50.4 µM
- TGI (NCI-H23 lung): 69.4 µM
- TGI (NCI-H460 lung): 51.8 µM
- TGI (NCI-H522 lung): 42 µM
- TGI (NCI/ADR-RES ovarian): > 100 µM
- TGI (OVCAR-3 ovarian): 41.1 µM
- TGI (OVCAR-4 ovarian): 35.6 µM
- TGI (OVCAR-5 ovarian): 45.1 µM
- TGI (OVCAR-8 ovarian): > 100 µM
- TGI (PC-3 prostate): 31.1 µM
- TGI (RPMI-8226 leukemia): 47.9 µM
- TGI (RXF 393 renal): 55 µM
- TGI (SF-268 CNS): 41.6 µM
- TGI (SF-295 CNS): 31.3 µM
- TGI (SF-539 CNS): 39.8 µM
- TGI (SK-MEL-2 melanoma): 40.5 µM
- TGI (SK-MEL-28 melanoma): > 100 µM
- TGI (SK-MEL-5 melanoma): 32.6 µM
- TGI (SK-OV-3 ovarian): 63.8 µM
- TGI (SN12C renal): 37.1 µM
- TGI (SNB-19 CNS): 35.9 µM
- TGI (SNB-75 CNS): 45.7 µM
- TGI (SR leukemia): 61.4 µM
- TGI (SW-620 colon): 38.6 µM
- TGI (T-47D breast): > 100 µM
- TGI (TK-10 renal): 16.5 µM
- TGI (U251 CNS): 26.5 µM
- TGI (UACC-257 melanoma): > 100 µM
- TGI (UACC-62 melanoma): 37 µM
- TGI (UO-31 renal): 30.8 µM
